From ChEMBL document CHEMBL1201862, “PubChem BioAssay data set” (2004)
The source made the active and inactive calls. Cut-off read from the data, not from the text of the source, for most assays here: actives have a measured IC50 and inactives only a lower limit.

Legend:
[1] = target: T1, Sentrin-specific protease 8 (Homo sapiens, UniProt Q96LD8); format: functional;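 note: luminescence read-out of SENP8 inhibition, dose-response confirmation following an ultra-high-throughput screen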
T1 sequence (Q96LD8 whole entry): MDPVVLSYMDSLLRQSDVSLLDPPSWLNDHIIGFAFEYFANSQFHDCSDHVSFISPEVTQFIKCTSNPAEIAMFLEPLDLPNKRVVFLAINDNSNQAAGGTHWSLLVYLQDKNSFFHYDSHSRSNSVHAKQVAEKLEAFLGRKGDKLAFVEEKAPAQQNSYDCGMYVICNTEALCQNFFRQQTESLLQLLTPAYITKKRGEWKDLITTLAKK

[2] = target: T2, Sentrin-specific protease 7 (Homo sapiens, UniProt Q9BQF6); format: functional;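 note: Luminescence-based dose-response confirmation of ultra-high-throughput screening hits, measuring inhibition of SENP7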
T2 sequence (Q9BQF6 whole entry): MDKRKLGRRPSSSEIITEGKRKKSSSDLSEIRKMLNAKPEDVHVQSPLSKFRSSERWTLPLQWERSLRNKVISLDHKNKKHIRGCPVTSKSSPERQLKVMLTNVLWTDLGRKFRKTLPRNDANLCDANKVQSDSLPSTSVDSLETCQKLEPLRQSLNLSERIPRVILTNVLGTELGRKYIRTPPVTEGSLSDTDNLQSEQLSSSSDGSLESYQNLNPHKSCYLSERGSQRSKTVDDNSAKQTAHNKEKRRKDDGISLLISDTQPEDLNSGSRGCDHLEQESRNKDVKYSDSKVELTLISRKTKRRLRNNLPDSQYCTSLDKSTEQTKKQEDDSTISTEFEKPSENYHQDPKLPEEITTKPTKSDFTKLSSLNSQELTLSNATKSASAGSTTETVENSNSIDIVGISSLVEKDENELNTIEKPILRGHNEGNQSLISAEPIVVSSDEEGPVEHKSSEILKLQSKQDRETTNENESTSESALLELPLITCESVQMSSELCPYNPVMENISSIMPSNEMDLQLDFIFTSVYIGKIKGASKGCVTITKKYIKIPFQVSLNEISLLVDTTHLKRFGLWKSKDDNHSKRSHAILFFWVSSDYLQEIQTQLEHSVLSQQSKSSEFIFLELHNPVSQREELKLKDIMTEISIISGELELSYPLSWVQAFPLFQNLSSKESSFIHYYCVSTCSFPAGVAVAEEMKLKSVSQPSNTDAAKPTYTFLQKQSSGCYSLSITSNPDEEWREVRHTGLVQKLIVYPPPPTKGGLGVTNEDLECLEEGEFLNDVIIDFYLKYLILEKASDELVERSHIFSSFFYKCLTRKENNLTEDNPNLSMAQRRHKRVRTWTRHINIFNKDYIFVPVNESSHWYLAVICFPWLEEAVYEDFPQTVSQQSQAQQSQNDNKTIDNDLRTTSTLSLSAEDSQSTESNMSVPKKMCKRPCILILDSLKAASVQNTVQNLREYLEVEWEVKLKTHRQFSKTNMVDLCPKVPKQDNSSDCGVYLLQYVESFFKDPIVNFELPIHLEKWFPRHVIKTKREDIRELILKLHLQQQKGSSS

Caspase-3 = target: T3, Caspase-3 (Homo sapiens, UniProt P42574); format: functional;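 note: Dose-response selectivity test against caspase-3 for candidate inhibitors of sentrin-specific proteases (SENPs)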
T3 sequence (P42574 whole entry): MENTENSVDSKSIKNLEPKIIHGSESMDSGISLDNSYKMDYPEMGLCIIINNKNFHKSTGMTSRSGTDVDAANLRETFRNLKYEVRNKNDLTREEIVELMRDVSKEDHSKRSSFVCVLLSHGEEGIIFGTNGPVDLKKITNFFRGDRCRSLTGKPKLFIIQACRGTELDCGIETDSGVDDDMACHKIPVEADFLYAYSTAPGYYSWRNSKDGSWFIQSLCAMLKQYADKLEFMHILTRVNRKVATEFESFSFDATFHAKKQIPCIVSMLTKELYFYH

[3] = target: T4, Sentrin-specific protease 6 (Homo sapiens, UniProt Q9GZR1); format: functional;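 note: Luminescence-based dose-response confirmatory assay of SENP6 inhibition, following up an ultra-high-throughput screen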
T4 sequence (Q9GZR1 whole entry): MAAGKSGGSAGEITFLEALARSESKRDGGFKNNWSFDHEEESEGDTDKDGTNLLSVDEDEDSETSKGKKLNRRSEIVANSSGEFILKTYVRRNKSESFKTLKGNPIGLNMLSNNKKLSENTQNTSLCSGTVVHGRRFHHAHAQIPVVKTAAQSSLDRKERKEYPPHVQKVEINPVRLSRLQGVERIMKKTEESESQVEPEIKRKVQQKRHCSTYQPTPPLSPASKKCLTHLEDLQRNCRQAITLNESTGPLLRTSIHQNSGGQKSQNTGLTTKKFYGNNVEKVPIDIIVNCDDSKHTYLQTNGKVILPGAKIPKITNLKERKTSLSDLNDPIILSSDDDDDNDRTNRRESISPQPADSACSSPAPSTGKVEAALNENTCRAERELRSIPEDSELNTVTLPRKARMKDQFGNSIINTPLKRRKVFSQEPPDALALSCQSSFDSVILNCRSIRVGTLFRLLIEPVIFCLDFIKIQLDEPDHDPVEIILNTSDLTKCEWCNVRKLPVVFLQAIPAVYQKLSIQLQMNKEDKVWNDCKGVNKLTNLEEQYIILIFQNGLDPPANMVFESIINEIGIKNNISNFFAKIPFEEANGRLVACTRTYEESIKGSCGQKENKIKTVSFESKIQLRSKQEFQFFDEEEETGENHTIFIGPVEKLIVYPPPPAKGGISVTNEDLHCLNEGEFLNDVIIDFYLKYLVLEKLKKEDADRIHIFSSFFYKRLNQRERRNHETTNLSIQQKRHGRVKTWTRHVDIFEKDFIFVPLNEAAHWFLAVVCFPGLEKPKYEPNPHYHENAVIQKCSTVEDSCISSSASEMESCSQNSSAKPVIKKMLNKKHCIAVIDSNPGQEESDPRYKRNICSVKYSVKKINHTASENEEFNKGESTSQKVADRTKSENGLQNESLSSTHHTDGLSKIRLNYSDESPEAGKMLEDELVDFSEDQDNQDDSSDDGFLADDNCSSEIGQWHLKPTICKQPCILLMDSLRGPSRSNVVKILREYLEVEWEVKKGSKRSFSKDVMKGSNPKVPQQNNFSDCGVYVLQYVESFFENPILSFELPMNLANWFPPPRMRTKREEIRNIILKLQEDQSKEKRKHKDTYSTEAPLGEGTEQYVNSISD

[4] = target: T5, Corticotropin-releasing factor receptor 2/Corticotropin-releasing factor-binding protein (Homo sapiens, UniProt P24387+Q13324); assay: Dose Response confirmation of uHTS hits for small molecule antagonists of the CRF-binding protein and CRF-R2 receptor complex.; format: functional; settings: read-out: IC50_Mean
T5 sequence (Q13324 whole entry): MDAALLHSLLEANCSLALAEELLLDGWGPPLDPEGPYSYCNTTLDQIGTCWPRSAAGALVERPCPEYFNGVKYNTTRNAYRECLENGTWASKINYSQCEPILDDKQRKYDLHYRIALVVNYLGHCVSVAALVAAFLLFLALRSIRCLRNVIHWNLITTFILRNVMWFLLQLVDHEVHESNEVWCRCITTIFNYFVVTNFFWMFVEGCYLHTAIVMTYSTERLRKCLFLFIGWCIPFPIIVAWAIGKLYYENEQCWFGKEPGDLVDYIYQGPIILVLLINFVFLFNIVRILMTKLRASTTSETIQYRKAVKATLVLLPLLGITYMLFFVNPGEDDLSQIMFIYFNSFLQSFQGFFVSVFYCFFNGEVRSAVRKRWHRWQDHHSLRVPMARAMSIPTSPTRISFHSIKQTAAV
T5 sequence (P24387 whole entry): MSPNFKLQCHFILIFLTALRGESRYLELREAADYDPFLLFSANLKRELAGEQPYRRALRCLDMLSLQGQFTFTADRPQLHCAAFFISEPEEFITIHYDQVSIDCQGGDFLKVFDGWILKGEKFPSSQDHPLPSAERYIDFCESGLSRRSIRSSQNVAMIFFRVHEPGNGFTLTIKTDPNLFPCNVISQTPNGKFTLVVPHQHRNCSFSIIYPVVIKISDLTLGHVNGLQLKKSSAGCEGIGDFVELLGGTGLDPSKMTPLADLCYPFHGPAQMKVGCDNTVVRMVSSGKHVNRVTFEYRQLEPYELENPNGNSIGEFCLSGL

[5] = target: T5, Corticotropin-releasing factor receptor 2/Corticotropin-releasing factor-binding protein; assay: activators of CRF receptor 2 with binding protein – uHTS hits, confirmation (AID 602473); format: functional; settings: read-out: EC50_Mean
Cytochrome P450 2C9 = Cytochrome P450 2C9 (Homo sapiens, UniProt P11712)
Cytochrome P450 2D6 = Cytochrome P450 2D6 (Homo sapiens, UniProt P10635);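 note: CYP2D6 member of a cytochrome P450 panel assay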
[6] = target: T6, Heat shock factor protein 1 (Mus musculus, UniProt P38532); assay: enhancement of HSF1-driven luciferase signal – cell-based, NIH3T3, luminescence, dose retest, confirmation (AID 435004); format: functional;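 note: stress induced by proteasome inhibitor MG132 added 30 min after compound; luciferase reporter driven by HSF1 response element in NIH3T3 cells; actives raise luminescence as potentiators of the MG132 stress response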
T6 sequence (P38532 whole entry): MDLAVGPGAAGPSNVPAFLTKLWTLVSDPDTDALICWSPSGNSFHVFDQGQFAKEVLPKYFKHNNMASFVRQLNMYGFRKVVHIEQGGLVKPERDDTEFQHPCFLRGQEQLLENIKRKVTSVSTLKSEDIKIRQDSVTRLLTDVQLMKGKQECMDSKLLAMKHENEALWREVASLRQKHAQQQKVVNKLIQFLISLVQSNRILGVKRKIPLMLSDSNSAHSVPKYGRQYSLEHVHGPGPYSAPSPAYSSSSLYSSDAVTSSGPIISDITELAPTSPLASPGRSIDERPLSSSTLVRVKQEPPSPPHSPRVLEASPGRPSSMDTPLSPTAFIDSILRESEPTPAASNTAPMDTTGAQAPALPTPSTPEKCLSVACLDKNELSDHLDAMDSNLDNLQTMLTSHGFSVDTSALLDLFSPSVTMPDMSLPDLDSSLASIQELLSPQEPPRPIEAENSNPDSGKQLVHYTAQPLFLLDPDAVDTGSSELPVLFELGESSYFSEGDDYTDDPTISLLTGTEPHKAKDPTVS

Cytochrome P450 2D6, sequence (P10635 whole entry): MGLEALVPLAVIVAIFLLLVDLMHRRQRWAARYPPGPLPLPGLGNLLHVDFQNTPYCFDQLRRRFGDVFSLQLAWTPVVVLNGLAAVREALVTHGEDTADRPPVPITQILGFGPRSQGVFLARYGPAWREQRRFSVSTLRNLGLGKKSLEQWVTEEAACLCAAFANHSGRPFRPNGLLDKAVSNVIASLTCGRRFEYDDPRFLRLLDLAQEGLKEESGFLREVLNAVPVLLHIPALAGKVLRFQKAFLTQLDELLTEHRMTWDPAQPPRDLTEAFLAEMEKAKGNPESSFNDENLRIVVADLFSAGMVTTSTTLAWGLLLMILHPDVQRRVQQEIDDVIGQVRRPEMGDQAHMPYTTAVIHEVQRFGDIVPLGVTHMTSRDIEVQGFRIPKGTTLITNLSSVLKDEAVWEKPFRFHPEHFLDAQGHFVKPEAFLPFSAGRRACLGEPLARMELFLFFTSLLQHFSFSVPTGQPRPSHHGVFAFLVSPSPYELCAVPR
Cytochrome P450 2C9, sequence (P11712 whole entry): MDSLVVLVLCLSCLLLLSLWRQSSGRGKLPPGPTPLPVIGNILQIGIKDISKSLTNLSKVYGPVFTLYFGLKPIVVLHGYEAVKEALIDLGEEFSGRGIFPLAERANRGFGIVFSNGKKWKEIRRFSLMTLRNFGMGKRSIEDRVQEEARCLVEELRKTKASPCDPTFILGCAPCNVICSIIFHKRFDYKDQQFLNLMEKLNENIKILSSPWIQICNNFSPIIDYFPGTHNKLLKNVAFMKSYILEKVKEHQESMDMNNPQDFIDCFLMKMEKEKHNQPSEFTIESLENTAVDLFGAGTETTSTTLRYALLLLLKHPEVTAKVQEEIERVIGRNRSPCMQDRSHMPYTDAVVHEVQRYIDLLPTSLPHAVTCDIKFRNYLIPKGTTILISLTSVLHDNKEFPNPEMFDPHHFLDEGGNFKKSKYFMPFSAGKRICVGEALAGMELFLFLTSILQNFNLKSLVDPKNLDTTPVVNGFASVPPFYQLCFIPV

COc1ccc(C(=O)O/N=C(\N)c2ccc(OC)c(OC)c2)cc1
IC50 [1]: 11.5 µM (active) | IC50 [2]: 8.96 µM (active) | IC50 (Caspase-3): 13.3 µM (active) | IC50 [3]: 11.5 µM (active)

COc1ccc(-c2cc(-c3cc(C)ccc3O)n[nH]2)cc1
IC50 [1]: 9.6 µM (active) | IC50 [2]: 4.46 µM (active) | IC50 (Caspase-3): 44.2 µM (active) | IC50 [3]: 10.3 µM (active)

CC(=O)c1c(C)oc2ccc(OCc3ccccc3)cc12
IC50 [1]: 75.8 µM (active) | IC50 [2]: 11.4 µM (active) | IC50 (Caspase-3): 39 µM (active) | IC50 [3]: 45.3 µM (active)

O=C(Nc1cccs1)Nc1ccc(Br)cc1F
IC50 [1]: > 100 µM (inactive) | IC50 [2]: 11.4 µM (active) | IC50 (Caspase-3): 45.8 µM (active) | IC50 [3]: 86.7 µM (active)

COC(=O)c1sccc1NC(=O)Cc1ccc(Br)cc1
IC50 [1]: 24.8 µM (active) | IC50 [2]: 7.65 µM (active) | IC50 (Caspase-3): 17.9 µM (active) | IC50 [3]: 20.3 µM (active)

O=c1oc(-c2ccco2)nc2sc3c(c12)CCCC3
IC50 [4]: > 47.1 µM (inactive) | IC50 [1]: > 100 µM (inactive) | EC50 [5]: > 53 µM (inactive) | IC50 [2]: 5.4 µM (active) | IC50 (Caspase-3): 41.7 µM (active) | IC50 [3]: 35.1 µM (active)

O=C(Nc1ccc(Cl)cn1)c1ccc(Oc2ccccc2)cc1
IC50 [1]: 3.37 µM (active) | IC50 [2]: 2.3 µM (active) | IC50 (Caspase-3): 5.66 µM (active) | IC50 [3]: 3.22 µM (active)

Cc1cc(C)nc(NC(=O)/C=C/c2ccc(Cl)cc2Cl)c1
IC50 [1]: 3.93 µM (active) | AC50 (Cytochrome P450 2C9): inconclusive | AC50 (Cytochrome P450 2D6): 20 µM (inconclusive) | IC50 [2]: 3.39 µM (active) | IC50 (Caspase-3): 14.1 µM (active) | IC50 [3]: 3.51 µM (active)

COc1ccc(/N=C(\C)C2=C(O)c3ccccc3C2=O)cc1
EC50 [6]: > 260 µM (inactive) | IC50 [1]: 6.43 µM (active) | IC50 [2]: 1.99 µM (active) | IC50 (Caspase-3): 4.38 µM (active) | IC50 [3]: 5.08 µM (active)

O=C(O/N=C1\CCCc2ccccc21)c1ccc(F)cc1
IC50 [1]: 2.09 µM (active) | IC50 [2]: 2.15 µM (active) | IC50 (Caspase-3): 2.23 µM (active) | IC50 [3]: 2.34 µM (active)
